Assay [1] concerns the target T1, TRPM8 (Mus musculus, UniProt Q8R4D5). Briefly: whole-cell voltage clamp of menthol-evoked currents in mTRPM8-transfected HEK293T cells; also Fura-2 calcium imaging. The class given is cell-based.
Assay [2] addresses T1, TRPM8. The experiment in a line: whole-cell voltage clamp (V1/[…] shift with […] menthol) and Fura-2 calcium imaging ([…]) in mTRPM8-transfected HEK293T cells. Type of assay: cell-based.

Each structure is given as a SMILES string.

T1 sequence (Q8R4D5 whole entry): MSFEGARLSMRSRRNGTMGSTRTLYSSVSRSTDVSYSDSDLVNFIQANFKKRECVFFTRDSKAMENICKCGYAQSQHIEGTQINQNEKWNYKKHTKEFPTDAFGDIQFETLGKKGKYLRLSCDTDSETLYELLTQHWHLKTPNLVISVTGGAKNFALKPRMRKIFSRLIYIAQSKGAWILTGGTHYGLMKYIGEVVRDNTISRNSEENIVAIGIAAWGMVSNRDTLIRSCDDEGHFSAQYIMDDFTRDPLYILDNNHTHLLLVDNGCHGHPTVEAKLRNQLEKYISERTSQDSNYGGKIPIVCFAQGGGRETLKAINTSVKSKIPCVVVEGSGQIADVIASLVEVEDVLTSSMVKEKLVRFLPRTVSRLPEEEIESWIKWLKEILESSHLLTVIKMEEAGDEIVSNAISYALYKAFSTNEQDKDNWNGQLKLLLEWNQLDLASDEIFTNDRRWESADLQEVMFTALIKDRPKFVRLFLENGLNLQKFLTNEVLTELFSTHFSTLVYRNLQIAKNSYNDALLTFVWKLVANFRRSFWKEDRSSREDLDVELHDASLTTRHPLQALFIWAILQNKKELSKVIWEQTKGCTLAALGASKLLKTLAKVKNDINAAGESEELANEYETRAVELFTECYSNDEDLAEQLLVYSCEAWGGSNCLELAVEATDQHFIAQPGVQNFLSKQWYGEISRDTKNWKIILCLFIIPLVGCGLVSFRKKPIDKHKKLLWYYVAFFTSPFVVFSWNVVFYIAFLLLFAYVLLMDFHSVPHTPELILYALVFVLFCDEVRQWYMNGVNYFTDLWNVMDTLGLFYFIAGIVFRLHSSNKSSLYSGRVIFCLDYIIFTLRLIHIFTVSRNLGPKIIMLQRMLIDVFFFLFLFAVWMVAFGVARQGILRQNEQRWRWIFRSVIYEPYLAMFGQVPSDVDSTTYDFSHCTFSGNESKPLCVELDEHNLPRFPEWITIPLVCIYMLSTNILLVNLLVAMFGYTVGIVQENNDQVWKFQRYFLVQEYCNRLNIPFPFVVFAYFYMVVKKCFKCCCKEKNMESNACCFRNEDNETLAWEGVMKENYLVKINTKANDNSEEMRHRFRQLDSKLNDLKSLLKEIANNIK

Regarding `COc1cc(CN(CCN)C(=O)OC(C)c2ccccc2)ccc1OCc1ccccc1` (centres unmarked) [PBMC, 1-phenylethyl-4-(benzyloxy)-3-methoxybenzyl(2-aminoethyl)carbamate], on TRPM8 [1], the IC50 (as a rule, the concentration that gives 50% inhibition) was 0.4 nM.
For the compound `CC1CCC(C(C)C)C(O)C1` (centres unmarked) [menthol], the “V1/2 shift with 1 mM menthol” value at TRPM8 [2] is listed as 79.1±21.1 mV.
